Publication PMC11163866 (Journal of medicinal chemistry, 2024)

Columns and labels:
[1] = In vitro metabolic stability in mouse liver microsomes; type: in vitro ADME; conditions: 1 μM; 0.5 mg/mL microsomes; up to 60 min
[2] = In vitro metabolic stability in human liver microsomes; type: in vitro ADME; conditions: 1 μM; 0.5 mg/mL microsomes; up to 60 min

Structure (SMILES)	metabolic stability (t1/2, min) vs MLM [1]	metabolic stability (t1/2, min) vs HLM [2]
CCc1ccc(C2=N/C(=C\NC3CCCCCCC3)C(C)=C2C)[nH]1.Cl [compound 112, (Z)-N-((5-Ethyl-3',4'-dimethyl-1H,5'H-[2,2'-bipyrrol]-5'-ylidene)methyl)cyclooctanamine Hydrochloride]	> 60.0 min	> 60.0 min
CCc1c(C)[nH]c(C2=N/C(=C\NC34CC5CC(CC(C5)C3)C4)C(C)=C2C)c1C.Cl [compound 116]	29.0 min	> 60.0 min
Cl.Fc1cc(F)cc(OC2=CC(c3ccc[nH]3)=N/C2=C\NC23CC4CC(CC(C4)C2)C3)c1 [compound 74, (3s,5s,7s)-N-((Z)-(4'-(3,5-Difluorophenoxy)-1H,5'H-[2,2'-bipyrrol]-5'-ylidene)methyl)adamantan-1-amine Hydrochloride]	> 60.0 min	> 60.0 min
COC1=CC(c2ccc[nH]2)=N/C1=C\NCC1CCCCCC1.Cl [compound 46, (Z)-1-Cycloheptyl-N-((4'-methoxy-1H,5'H-[2,2'-bipyrrol]-5'-ylidene)methyl)-methanamine Hydrochloride]	12.3 min	18.6 min
COc1ccc(Oc2ccc(N/C=C3\N=C(c4ccc[nH]4)C4=C3CCCC4)cc2)cc1.Cl [compound 108, (Z)-N-((3-(1H-Pyrrol-2-yl)-4,5,6,7-tetrahydro-1H-isoindol-1-ylidene)methyl)-4-(4-methoxyphenoxy)aniline Hydrochloride]	> 60.0 min	> 60.0 min
CCc1ccc(C2=N/C(=C\NC3CCCCCC3)C(OC)=C2)[nH]1.Cl [compound 117, (Z)-N-((5-Ethyl-4'-methoxy-1H,5'H-[2,2'-bipyrrol]-5'-ylidene)methyl)cycloheptanamine Hydrochloride]	7.98 min	> 60.0 min
COC1=CC(c2ccc[nH]2)=N/C1=C\Nc1ccc(F)c(OC)c1.Cl [compound 62, (Z)-4-Fluoro-3-methoxy-N-((4'-methoxy-1H,5'H-[2,2'-bipyrrol]-5'-ylidene)methyl)aniline Hydrochloride]	19.1 min	> 60.0 min
Cl.Clc1ccc(OC2=CC(c3ccc[nH]3)=N/C2=C\NC23CC4CC(CC(C4)C2)C3)cc1 [compound 77, (3s,5s,7s)-N-((Z)-(4'-(4-Chlorophenoxy)-1H,5'H-[2,2'-bipyrrol]-5'-ylidene)methyl)adamantan-1-amine Hydrochloride]	> 60 min	> 60 min
CCCCCCN/C=C1\N=C(c2ccc[nH]2)C=C1OC.Cl [compound 42]	10.2 min	17.1 min
COC1=CC(c2ccc[nH]2)=N/C1=C\Nc1ccc2c(c1)OCCO2.Cl [compound 63, (Z)-N-((4'-Methoxy-1H,5'H-[2,2'-bipyrrol]-5'-ylidene)methyl)-2,3-dihydrobenzo[b][1,4]dioxin-6-amine Hydrochloride]	15.8 min	> 60.0 min
Cc1ccc(N/C=C2\N=C(c3ccc[nH]3)C3=C2CCCC3)cc1.Cl [compound 105, (Z)-N-((3-(1H-Pyrrol-2-yl)-4,5,6,7-tetrahydro-1H-isoindol-1-ylidene)methyl)-4-methylaniline Hydrochloride]	31.2 min	42.1 min
C(/NCC1CCCCCC1)=C1/N=C(c2ccc[nH]2)C2=C1CCCC2.Cl [compound 104, (Z)-1-(3-(1H-Pyrrol-2-yl)-4,5,6,7-tetrahydro-1H-isoindol-1-ylidene)-N-(cycloheptylmethyl)methanamine Hydrochloride]	> 60.0 min	> 60.0 min
COC1=CC(c2ccc[nH]2)=N/C1=C\Nc1ccc(Cl)c(Cl)c1.Cl [compound 60, (Z)-3,4-Dichloro-N-((4'-methoxy-1H,5'H-[2,2'-bipyrrol]-5'-ylidene)methyl)aniline Hydrochloride]	46.7 min	56.2 min
C(/NC1CCCCCC1)=C1/N=C(c2ccc[nH]2)C2=C1CCCC2.Cl [compound 102]	9.71 min	> 60.0 min
COC1=CC(c2ccc(Cc3ccc(OC)cc3)[nH]2)=N/C1=C\NC12CC3CC(CC(C3)C1)C2.Cl [compound 123, (3s,5s,7s)-N-((Z)-(4'-Methoxy-5-(4-methoxybenzyl)-1H,5'H-[2,2'-bipyrrol]-5'-ylidene)methyl)adamantan-1-amine Hydrochloride]	> 60.0 min	> 60.0 min
Cc1ccc(Oc2ccc(N/C=C3\N=C(c4ccc[nH]4)C4=C3CCCC4)cc2)cc1.Cl [compound 109, (Z)-N-((3-(1H-Pyrrol-2-yl)-4,5,6,7-tetrahydro-1H-isoindol-1-ylidene)methyl)-4-(p-tolyloxy)aniline Hydrochloride]	> 60.0 min	> 60.0 min

Structure (SMILES)	metabolic stability (t1/2, min) vs MLM [1]	metabolic stability (t1/2, min) vs HLM [2]
COC1=CC(c2ccc[nH]2)=N/C1=C\Nc1ccc(OC(F)(F)F)cc1.Cl [compound 54, (Z)-N-((4'-Methoxy-1H,5'H-[2,2'-bipyrrol]-5'-ylidene)methyl)-4-(trifluoromethoxy)aniline Hydrochloride]	45.1 min	> 60.0 min
COC1=CC(c2ccc(Cc3ccc(OC)cc3)[nH]2)=N/C1=C\NC1CCCCCC1.Cl [compound 121, (Z)-N-((4'-Methoxy-5-(4-methoxybenzyl)-1H,5'H-[2,2'-bipyrrol]-5'-ylidene)methyl)cycloheptanamine Hydrochloride]	14.8 min	25.6 min
COC1=CC(c2ccc(Cc3ccc(OC)cc3)[nH]2)=N/C1=C\NC1CCCC1.Cl [compound 119, (Z)-N-((4'-Methoxy-5-(4-methoxybenzyl)-1H,5'H-[2,2'-bipyrrol]-5'-ylidene)methyl)cyclopentanamine Hydrochloride]	10.4 min	11.7 min
COC1=CC(c2ccc[nH]2)=N/C1=C\N[C@H]1CC[C@H](C(F)(F)F)CC1.Cl [compound 48, (1r,4r)-N-((Z)-(4'-Methoxy-1H,5'H-[2,2'-bipyrrol]-5'-ylidene)methyl)-4-(trifluoromethyl)cyclohexan-1-amine Hydrochloride]	15.4 min	13.0 min
COC1=CC(c2ccc(-c3ccc(OC)cc3)[nH]2)=N/C1=C\NC1CCCCCC1.Cl [compound 118, (Z)-N-((4'-Methoxy-5-(4-methoxyphenyl)-1H,5'H-[2,2'-bipyrrol]-5'-ylidene)methyl)cycloheptanamine Hydrochloride]	> 60.0 min	> 60.0 min
COC1=CC(c2ccc[nH]2)=N/C1=C\NC1CCCCCC1.Cl [compound 45]	8.20 min	52.1 min
CC1=C(C)/C(=C/NC2CCCCCC2)N=C1c1ccc[nH]1.Cl [compound 90]	11.2 min	45.1 min
CCc1c[nH]c(C2=N/C(=C\NC3CCCCCC3)C(C)=C2C)c1.Cl [compound 113, (Z)-N-((4-Ethyl-3',4'-dimethyl-1H,5'H-[2,2'-bipyrrol]-5'-ylidene)methyl)cycloheptanamine Hydrochloride]	–	> 60.0 min
CC1=C/C(=C\NC23CC4CC(CC(C4)C2)C3)N=C1c1ccc[nH]1.Cl [compound 88]	17.6 min	> 60.0 min
Cl.FC(F)(F)Oc1ccc(OC2=CC(c3ccc[nH]3)=N/C2=C\NC23CC4CC(CC(C4)C2)C3)cc1 [compound 70, (3s,5s,7s)-N-((Z)-(4'-(4-(Trifluoromethoxy)phenoxy)-1H,5'H-[2,2'-bipyrrol]-5'-ylidene)methyl)adamantan-1-amine Hydrochloride]	> 60.0 min	> 60.0 min
COC1=CC(c2ccc[nH]2)=N/C1=C\Nc1ccc(Cl)c(OC)c1.Cl [compound 61, (Z)-4-Chloro-3-methoxy-N-((4'-methoxy-1H,5'H-[2,2'-bipyrrol]-5'-ylidene)methyl)aniline Hydrochloride]	> 60.0 min	> 60.0 min
COC1=CC(c2ccc[nH]2)=N/C1=C\Nc1ccc(C)cc1.Cl [compound 52, (Z)-N-((4'-Methoxy-1H,5'H-[2,2'-bipyrrol]-5'-ylidene)methyl)-4-methylaniline Hydrochloride]	28.9 min	–
COC1=CC(c2ccc(Cc3ccc(OC)cc3)[nH]2)=N/C1=C\NC1CCCCC1.Cl [compound 120, (Z)-N-((4'-Methoxy-5-(4-methoxybenzyl)-1H,5'H-[2,2'-bipyrrol]-5'-ylidene)methyl)cyclohexanamine Hydrochloride]	13.8 min	19.7 min
COC1=CC(c2ccc[nH]2)=N/C1=C\Nc1cccc(OC(F)(F)F)c1.Cl [compound 58, (Z)-N-((4'-Methoxy-1H,5'H-[2,2'-bipyrrol]-5'-ylidene)methyl)-3-(trifluoromethoxy)aniline Hydrochloride]	15.8 min	> 60.0 min
COC1=CC(c2ccc[nH]2)=N/C1=C\N[C@H]1CC[C@H](C)CC1.Cl [compound 47, (1r,4r)-N-((Z)-(4'-Methoxy-1H,5'H-[2,2'-bipyrrol]-5'-ylidene)methyl)-4-methylcyclohexan-1-amine Hydrochloride]	11.4 min	17.3 min
COC1=CC(c2ccc[nH]2)=N/C1=C\Nc1cccc(Cl)c1.Cl [compound 57, (Z)-3-Chloro-N-((4'-methoxy-1H,5'H-[2,2'-bipyrrol]-5'-ylidene)methyl)aniline Hydrochloride]	42.0 min	> 60.0 min
